# Values quoted from earlier work as cited in patent publication US9763892B2, “Immediate release phospholipid-coated therapeutic agent nanoparticles and related methods” (Autotelic LLC, priority 2015, dated 2017).
# Settings: phospholipid used for PTX-NPs
row,SMILES,Transition Temp.
1,"CCCCCCCCCCCCCCCCCCCC(=O)OC[C@H](COP(=O)([O-])OCC[N+](C)(C)C)OC(=O)CCCCCCCCCCCCCCCCCCC [PC-20, 1,2-diarachidoyl-sn-glycero-3-phosphocholine]",66 °C
2,"CCCCCCCC/C=C\CCCCCCCC(=O)OC[C@H](COP(=O)([O-])OCC[N+](C)(C)C)OC(=O)CCCCCCC/C=C\CCCCCCCC [PC-18 (unsaturated), 1,2-dioleoyl-sn-glycero-3-phosphocholine]",−17 °C
3,"CCCCCCCCCCCCCC(=O)OC[C@H](COP(=O)([O-])OCC[N+](C)(C)C)OC(=O)CCCCCCCCCCCCC [PC-14, 1,2-dimyristoyl-sn-glycero-3-phosphocholine]",24 °C
4,"CCCCCCCCCCCCCCCC(=O)OC[C@H](COP(=O)([O-])OCC[N+](C)(C)C)OC(=O)CCCCCCCCCCCCCCC [PC 16, 1,2-dipalmitoyl-sn-glycero-3-phosphocholine]",41 °C
5,"CCCCCCCCCCCC(=O)OC[C@H](COP(=O)([O-])OCC[N+](C)(C)C)OC(=O)CCCCCCCCCCC [PC-12, 1,2-dilauroyl-sn-glycero-3-phosphocholine]",−2 °C
